Target: T1, rM3Ds (Rattus norvegicus, UniProt P08483, A177S/A238G/A489L/DEL261-437/DEL441-478/E258S/I253V/I483M/INS256[…]/K178L/K182A/K255R/K484R/K486H/L173F/L482A/M480V/R171S/R176Q/R179M/S481M/T174R/T181R/T257A/Y148C)
T1 sequence (P08483 with tags, fused parts or gaps Y148C/R171S/L173F/T174R/R176Q/A177S/K178L/R179M/T181R/K182A/A238G/I253V/K255R/INS256[…]/T257A/E258S/DEL261-437/DEL441-478/M480V/S481M/L482A/I483M/K484R/K486H/A489L): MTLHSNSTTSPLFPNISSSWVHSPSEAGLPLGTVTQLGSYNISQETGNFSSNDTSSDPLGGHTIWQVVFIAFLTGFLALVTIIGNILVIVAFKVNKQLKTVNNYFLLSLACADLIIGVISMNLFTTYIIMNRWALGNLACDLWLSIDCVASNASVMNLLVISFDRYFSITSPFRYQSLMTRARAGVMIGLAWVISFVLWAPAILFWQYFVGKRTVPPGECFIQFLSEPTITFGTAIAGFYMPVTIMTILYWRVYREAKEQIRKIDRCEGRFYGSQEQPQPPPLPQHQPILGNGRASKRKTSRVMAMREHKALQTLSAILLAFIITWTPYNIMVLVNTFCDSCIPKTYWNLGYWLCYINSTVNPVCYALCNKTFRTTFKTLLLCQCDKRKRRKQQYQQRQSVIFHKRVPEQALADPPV
Assay: In vivo electrophysiological recording in caudate/putamen of anesthetized macaques, rM3Ds
Design: 2A-EYFP (C); expressed in transfected cells; host or cells: neurons (striatal D1-MSNs) of mice or cynomolgus macaques, transduced in vivo by nigral AAV8R12-G88P7-rM3Ds-2A-EYFP
Protocol: • Electrophysiological recording was performed through a recording chamber while the monkey was anesthetized. Neural responses were recorded by a 16-channel linear probe (Plexon Inc, Uprobe) driven by a mechanical microdrive (Alpha Omega, FlexMT). Signals were passed through a head stage (Plexon Inc, HST/16V-G20 LN) and then split and filtered between 300 Hz and 5 kHz to identify spiking activity with an amplifier system (Plexon Inc, OmniPlex). Detected spikes were then sorted by commercially available software (Plexon Inc, Offline Sorter) for further analysis. To quantify the effect of CNO/DCZ injection, neural activity was recorded for 60 minutes following CNO/DCZ injection. The response time-course for each channel was obtained by counting the spikes within every 10-minute window and then normalizing to the maximal.
To determine the effect of CNO/DCZ injection on the direction of signal change, we performed Pearson correlation between neural responses and time using the ‘corr’ function in Matlab, which generates the correlation coefficient ‘r’ and significant level ‘p’. A neuron was considered to have “Increased” activity when r>0 and p<0.05; and considered to have “Decreased” activity when r<0 and p<0.05. Otherwise, neurons were considered to be “Unchanged” in their neural activities. The responses of all increased neurons were then averaged after being normalized by the maximal response (Crowe et al., 2014; Dai and Wang, 2018; Hirokawa et al., 2019) following CNO/DCZ injection, and then plotted as a function of time to generate the normalized population response.
To enable in-vivo verification of the strategy via an opto-tagging approach, AAV virus encoding opsin ChR2 (AAV9-EF1α-DIO-ChR2-EYFP) was injected into the striatum with simultaneous nigral infusion of a retrograde AAV encoding Cre and rM3Ds (AAV8R12-G88P7-HA-rM3Ds-2A-Cre). A total volume of 27 μl (3 μl×9 sites) and 30 μl (3 μl×10 sites) were injected in the SNr and the striatum, respectively. A recording chamber was implanted above the striatum to allow optical stimulation and electrophysiological recording.
Optogenetic verification was conducted six weeks after virus injections. A 16-channel linear probe with an embedded optic fiber (Plexon Inc., Uprobe) was used to deliver light stimulation and record neural responses. A mechanical Microdrive (FlexMT, Alpha Omega, Nazareth, Israel) was used to mount and drive the probe. A blue laser (473 nm, Changchun New Industries Tech, MBL-III-473) was used to generate light stimulation, which was controlled by a DAQ board (National Instruments, PCIe-6321) through the MonkeyLogic toolbox (NIMH version).
Light pulses of 40 Hz that last for 500 ms were used to probe neurons' responses to optical stimulation. […] Responses from these optically identified cells were grouped to generate the normalized population response as a function of time.

[1] = monkey CM048, 38 cells, intramuscular CNO

## C[N+]1([O-])CCN(C2=Nc3cc(Cl)ccc3Nc3ccccc32)CC1 [CNO, Clozapine-N-oxide]
38 total cells, CNO administrations, saline 20%
  cells in caudate/putamen activated (FIG. 12N): 50%
38 total cells, CNO administrations, saline 26.7%
  cells in caudate/putamen unchanged (FIG. 12N): 36.8%
38 total cells, CNO administrations, saline 53.3%
  cells in caudate/putamen inactivated (FIG. 12N): 13.2%
AAV8R12-G88P7-HA-rM3Ds-2A-Cre plus AAV9-EF1α-DIO-ChR2-EYFP, intramuscular CNO, anesthetized macaques
  neuronal activity of opto-tagged retrogradely labeled D1-MSNs: effectively induced an increase of neuronal activity in retrogradely labeled D1-MSNs
MPP+ lesioned macaques, CNO 36 cells, DCZ 31 cells, saline 17.9%
  cells in caudate/putamen activated (FIG. 15G): 52.8%
MPP+ lesioned macaques, CNO 36 cells, DCZ 31 cells, saline 33.4%
  cells in caudate/putamen inactivated (FIG. 15G): 13.9%
MPP+ lesioned macaques, CNO 36 cells, DCZ 31 cells, saline 48.7%
  cells in caudate/putamen unchanged (FIG. 15G): 33.3%
[1]
  cells in caudate activated (FIG. 12F): 65.8%
  cells in caudate inactivated (FIG. 12F): 7.9%
  cells in caudate unchanged (FIG. 12F): 26.3%

Source: patent US20250382346A1, “NEURONAL PROMOTERS AND USES THEREOF” (priority 2023, published 2025)
